Results published in patent US20100221315A1, “VESICULAR FORMULATIONS CONTAINING ORGANIC ACID PRODRUGS, PROCESS FOR THEIR PREPARATION” (UNIVERSIDADE DE LISBOA, priority 2006, published 2010).
Values after ≈ are worked out from the molar mass of the structure shown. Where two headings read alike, the source gives them in different places.

Assays:
[1] = Incorporation efficiency (EE) in liposomes prepared by hydration of a lipid and drugs film; format: physicochemical
Procedure: Different lipids (20 μmol) and the prodrug (2 μmol) were weighed out, transferred to a round-bottom flask, dissolved in chloroform and the organic solvent evaporated using a rotating evaporator to form a lipid film. This film was then dried in a vacuum bomb for the removal of chloroform residues and 1 ml of isotonic phosphate pH 7.4 buffer (PBS) was added at a temperature at least 10° C. higher than the phase transition temperature (TC) of the lipids used. The mixture was stirred for an additional five minutes to complete hydration of the lipid film and, after a few minutes at rest, it was stirred again for a further five minutes.
In order to determine the incorporation efficiency (EE), aliquots of the liposomal suspension after hydration and of the liposomal suspension obtained after centrifugation, supernatant removal and re-suspension of the sediment in its original volume (before being centrifuged) were collected. The EEs were calculated as the ratio between the prodrug concentration in the re-suspended liposome suspension and the prodrug concentration in the initial liposome suspension. Tables 2 to 6 show the EE values obtained for several formulations of different prodrugs.
All the prepared suspensions were checked using an optical phase contrast microscope set at 400× magnification.

M. tuberculosis H37Ra = assay: Antimycobacterial activity of free and encapsulated compounds in macrophage infected with Mycobacterium tuberculosis; format: cell-based; settings: infected J774.A1 macrophage
Procedure: In evaluating the antimycobacterial activity, a conventional method (Anes et al., Nat Cell Biol, 2003) was employed using a cell culture of […] (cell line J774.A1).
Briefly, the macrophage was plated in a DMEM medium having a high glucose concentration and supplemented with 10% Foetal Bovine Serum, in 24 well tissue culture plates at 37° C. in a 5% carbon dioxide atmosphere. As soon as about 80% confluence was obtained, the cells were infected with M. tuberculosis H37Ra at a rate such that an inoculum concentration of 10^6 mycobacteria/ml per well was obtained.
After 3 hours of bacterial uptake, 1 to 5 bacillus per infected cell and a total of about 10E4-5 bacteria/ml were expected per well. Washing of the infected cultures with pH 7 buffer PBS was then carried out three times in order to eliminate all bacteria non internalised by the macrophage. Fresh DMEM medium was added with and without the test compound.
The incubation period was 7 days using fresh medium every 3 days. The compounds were added after 3 hours of internalization and remained in contact with the infected cells until fresh medium DMEM was added.
After 3 hours, 1 day, 3 days, 5 days and 7 days from the beginning of the infection, intracellular bacteria were recovered for lyses of the infected macrophage with a 1% IGEPAL solution (Sigma) in water. At this concentration, macrophage are lysed with no effect on the viability of the mycobacteria.
After successive dilutions of the lysate with water, the surviving bacteria were cultured in Middlebrook 7H10 medium supplemented with OADC (Difco). After about 2 weeks of incubation at 37° C. the Unity Forming Colonies (UFCs) were counted. Each test was carried out in triplicate in independent experiments.

[2] = tested on: Mycobacterium tuberculosis H37Ra; assay: Determination of the Minimum Inhibitory Concentration (MIC) by successive dilutions; format: cell-based; settings: for MIC: broth, pH 5.5, about 21 days at 37° C.; for fold lower MIC values than those for PZA and POA: in vitro, pH 5.5
Procedure: Mycobacterium tuberculosis H37Ra was used as the reference strain. The esters C12, C14 and C16, pyrazinamide (PZA) and pyrazinoic acid (POA) were prepared in stock solutions of dimethyl sulfoxide (DMSO) at a concentration of 8 mg/ml. The Minimum Inhibitory Concentration was determined by the method of successive dilutions. The culture medium Myco (nutrient Broth-Difco, 10 g/L; Middlebrook 7H9-Difco, 10 g/L, 0,05% glucose and 0.01% of Tween 80) supplemented with OADC (Difco) was used and the pH was adjusted to 5.5.
To each test tube of each stage of the successive dilutions of the test compound, a sufficient volume of bacterial inoculum was added so as to provide a final concentration of 10^4 CFU/ml (CFU=Colony Forming Units). The tubes were incubated for about 21 days at 37° C. The onset of turbidity in the control tube (free of drugs) was checked for on a regular basis. Once turbidity appeared in the control test tube, the results were recorded where the MIC value was defined as the lowest concentration of drug able to inhibit the growth of mycobacteria (note there was a total absence of turbidity in the first test tube of the successive dilution sequence). These tests were performed in triplicate for each test compound. As expected, the MIC for PZA was 100 μg/ml.

in vitro [3] = format: in vitro ADME; settings: human, plasma
Procedure: 750 μl of plasma, 700 μl of PBS and 50 μl of stock solution of the compound (3.6×10^−3M) were added to each one of the test compounds in the free form in a test tube. The tube was incubated at 37° C. under agitation, and 150 μl aliquots were removed every five minutes, diluted with 600 μl of acetonitrile (ACN), and then centrifuged. The supernatant was removed and injected into an HPLC system. The area values obtained for each chromatogram were used to determine the half-life of each prodrug.
To each liposomal suspension in a test tube, 750 μl of plasma was added and diluted with PBS to a final volume of 3000 μl. The final drug concentration in each tube was 2×10^−3 M. The test tubes were then incubated at 37° C. with agitation and 150 μl aliquots were then removed at set time intervals, diluted with 600 μl of acetonitrile (ACN), and then centrifuged. For the remainder of the process, the same procedure was followed as described above for the free form case.

in vitro [4] = format: in vitro ADME; settings: rat, tissue homogenate
Procedure: For each of the compounds in free form, 50 μl of rat liver homogenate, 1400 μl of PBS and 50 μl of compound stock solution were added (3.6×10^−3 M) in a test tube. The tubes were incubated at 37° C. under agitation, and aliquots of 150 μl were removed every minute, diluted with 600 μl of acetonitrile (ACN), and then centrifuged. The supernatant was removed and placed into the vials of an autosampler and analysed by HPLC.
To each liposomal suspension in a test tube, 50 μl of homogenate was added and diluted with PBS to a final volume of 1500 μl. The final drug concentration was 2×10^−3 M. The test tubes were incubated at 37° C. under agitation and sample collection and analysis were carried out by the same procedure used for determining the stability of liposomal drugs in plasma.

[5] = Incorporation efficiency (EE) in liposomes prepared by hydration of a lipid and prodrugs lyophilisate; format: physicochemical; settings: hydration of lipids and prodrugs lyophilisate
Procedure: Solutions were prepared containing 20 μmol of lipids and 2 μmol of prodrug in 10 ml of tert-butanol and were filtered by sterile filtration. These solutions were then frozen in liquid nitrogen and lyophilised for 24 hours.
After lyophilisation, the solutions were hydrated by the addition of 1 ml of PBS at a temperature of at least 10° C. higher than that of the phase transition temperature (TC) of the lipids, using an ultrasound water bath for two minutes. The incorporation efficiencies (EE) were calculated as described above for the liposome preparation carried out by hydration of a lipid film and are shown in Table 7.
All the suspensions produced were checked using an optical microscope set at 400× magnification.

[6] = Mycobacterium tuberculosis, H37RA, 504 h, pH 5.5, M. tuberculosis H37Ra, read-out: MIC
[7] = pH 7.4, Half-life (min) Free form
[8] = pH 7.4, Half-life (min) Vesicular form (DMPC)
[9] = lipid formulation DMPC:DMPG (9:1)

SMILES | EE (%) incorporation efficiency ([1]; lipid formulation DMPC) [%] | intracellular bacterial growth after 7 days of infection (M. tuberculosis H37Ra) | MIC [2, 6] [µg/mL] | EE (%) incorporation efficiency ([1]; lipid formulation DPPC) [%] | half-life (in vitro [3]; [7]) [h] | half-life (in vitro [3]; [8]) [h] | half-life (in vitro [4]; [7]) [h] | half-life (in vitro [4]; [8]) [h] | EE (%) incorporation efficiency ([5]; lipid formulation DMPC) [%] | other results
CCCCCCCCCCCCCCCCNC(=O)c1cnccn1 [Compound A16, hexadecyl pyrazinamide] | 97.0 | – | – | – | – | – | – | – | – | EE (%) incorporation efficiency ([1]; lipid formulation DMPG:DMPG 9:1): 98.4%; EE (%) incorporation efficiency ([1]; lipid formulation DPPM): 98.1%
O=C(O)c1cnccn1 [POA, pyrazinoic acid, reference compound] | – | bacteria recovered their ability of intracellular growth | 100 to 200 (≈ 806 to 1610 µM) | – | – | – | – | – | – | –
CCCCCCCCOC(=O)C=Cc1ccccc1 [CO, octyl cinnamate] | 92.2 | – | – | 94.5 | – | – | – | – | – | –
CCCCCCCCCCCCCCOC(=O)c1cnccn1 [Compound C14, tetradecyl pyrazinoate] | – | – | 10 to 20 (≈ 31.2 to 62.4 µM) | – | 0.317 | 2.63 | 0.0667 | 2.82 | 98.2 | EE (%) incorporation efficiency ([5]; lipid formulation DPPC): 97.4%; fold lower MIC values than those for PZA and POA [2]: 10 fold
CCCCCCCCCCCCCCCCOC(=O)c1cnccn1 [Compound C16, hexadecyl pyrazinoate] | – | – | 20 to 40 (≈ 57.4 to 115 µM) | – | 1.13 | 3.57 | 0.35 | 12.8 | 97.3 | –
NC(=O)c1cnccn1 [PZA, pyrazinamide, reference compound] | – | bacteria recovered their ability of intracellular growth | 100 (≈ 812 µM) | – | – | – | – | – | – | MIC ([2]; M. tuberculosis H37Ra): 100 to 200 µg/mL
CCCCCCCCCCCCCCNC(=O)c1cnccn1 [Compound A14, N-tetradecyl pyrazinamide] | 95.2 | – | – | 96.4 | – | – | – | – | – | EE (%) incorporation efficiency [1, 9]: 98.6%
CCCCCCCCCCOC(=O)c1ccccc1 [BD, decyl benzoate] | 94.1 | – | – | 93.4 | – | – | – | – | – | –
CCCCCCCCCCCCOC(=O)c1cnccn1 [Compound C12, dodecyl pyrazinoate] | 94.7 | latency was observed | 20 to 40 (≈ 68.4 to 137 µM) | 93.1 | 0.25 | 1.3 | 0.0333 | 0.9 | 95.6 | difference in bactericidal effect between DPPC and DMPC formulations (M. tuberculosis H37Ra; liposomal forms): no such significant differences; increase of bactericidal effect by encapsulation in liposomes relatively to free form (M. tuberculosis H37Ra; FIG. 1B): about 50%; bactericidal effect, comparison of compounds (M. tuberculosis H37Ra; free or vesicular form, FIG. 2A, 2B): greatest bactericidal effect; EE (%) incorporation efficiency ([1]; lipid formulation DMPC:DMPG (7:3)): 82.7%; EE (%) incorporation efficiency [1, 9]: 87.0%; EE (%) incorporation efficiency ([1]; lipid formulation DPPC:DPPG (7:3)): 90.2%; EE (%) incorporation efficiency ([1]; lipid formulation DPPC:DPPG (9:1)): 87.2%; fold lower MIC values than those for PZA and POA [2]: 10 fold
